Results as given in patent US20100093738A1, “Fungicidal Compounds and Fungicidal Compositions” (BASF SE, priority 2006, published 2010).

What was measured:
Botrytis cinerea = assay: Activity against the gray mold pathogen Botrytis cinerea in the microtiter test; type: cell-based; details: 168 h, single active compound, day 7, read-out: Observed activity (%); for inhibition at 1 ppm: conc. 1 ppm, efficacy in % of untreated control
Pyricularia oryzae = assay: microbe, parasite or virus in culture; type: cell-based; details: for inhibition at 0.25 ppm: Pyricularia oryzae, 168 h, read-out: Observed activity (%)

Compound | inhibition at 1 ppm (Botrytis cinerea) | inhibition at 0.25 ppm (Pyricularia oryzae) | further results
O=C(Nc1ccccc1-c1ccc(Cl)cc1)c1cccnc1Cl [II.3, boscalid] | 58% |  | 
Cc1cc(C2CC2)nc(Nc2ccccc2)n1 [II.2, cyprodinil] |  | 63% | inhibition at 0.063 ppm (Botrytis cinerea; conc. 0.063 ppm): 72%
COC(=O)N(OC)c1ccccc1COc1ccn(-c2ccc(Cl)cc2)n1 [II.1, pyraclostrobin] | 19% |  | 
Fc1ccc([C@]2(Cn3cncn3)O[C@H]2c2ccccc2Cl)cc1 [II.5, epoxiconazol] |  |  | Observed activity (%) (Pyricularia oryzae; single active compound, conc. 0.25 ppm, day 7): 4%
CC(C1CC1)C(O)(Cn1cncn1)c1ccc(Cl)cc1 (stereo not drawn) [II.4, cyproconazol] |  | 0% | 
